Experimental data published in the NIST ThermoML archive (doi:10.1016/j.jct.2004.12.008).

Tests used:
[1] = 101 kPa, Liquid
[2] = refractive index (Na D-line) (dimensionless); conditions: 293.15 K; 101.33 kPa; Liquid; Standard Abbe refractometry
[3] = xn = mol fraction of the nth substance listed; conditions: 101 kPa, Liquid

Cc1ccccc1C [1,2-dimethylbenzene]
[1]
Conditions | mass density [kg/m3]
293.15 K | 878.6
303.15 K | 872.25
313.15 K | 859.67
323.15 K | 840.84

Conditions | refractive index
[2] | 1.50573

Cc1ccccc1C [1,2-dimethylbenzene] + O=[N+]([O-])c1ccccc1
[3], x1 = 1
Conditions | mass density [kg/m3]
293.15 K | 878.6
303.15 K | 872.25
313.15 K | 859.67
323.15 K | 840.84

Cc1cccc(C)c1 [1,3-dimethylbenzene]
[1]
Conditions | mass density [kg/m3]
293.15 K | 864.2
303.15 K | 855.76
313.15 K | 847.11
323.15 K | 838.27
333.15 K | 829.22
343.15 K | 819.97
353.15 K | 810.51

Conditions | refractive index
[2] | 1.49735

Cc1cccc(C)c1 [1,3-dimethylbenzene] + O=[N+]([O-])c1ccccc1
[3], x1 = 1
Conditions | mass density [kg/m3]
293.15 K | 864.2
303.15 K | 855.76
313.15 K | 847.11
323.15 K | 838.27
333.15 K | 829.22
343.15 K | 819.97
353.15 K | 810.51

Cc1ccc(C)cc1 [1,4-dimethylbenzene]
[1]
Conditions | mass density [kg/m3]
293.15 K | 861
303.15 K | 852.28
313.15 K | 843.58
323.15 K | 834.92
333.15 K | 826.27
343.15 K | 817.66
353.15 K | 809.07

Conditions | refractive index
[2] | 1.49577

Cc1ccc(C)cc1 [1,4-dimethylbenzene] + O=[N+]([O-])c1ccccc1
[3], x1 = 1
Conditions | mass density [kg/m3]
293.15 K | 861
303.15 K | 852.28
313.15 K | 843.58
323.15 K | 834.92
333.15 K | 826.27
343.15 K | 817.66
353.15 K | 809.07

c1ccccc1 [benzene]
[1]
Conditions | mass density [kg/m3]
293.15 K | 877.8
303.15 K | 867.99
313.15 K | 857.87
323.15 K | 847.4
333.15 K | 836.59
343.15 K | 825.42

Conditions | refractive index
[2] | 1.5009

c1ccccc1 [benzene] + O=[N+]([O-])c1ccccc1
[3], x1 = 1
Conditions | mass density [kg/m3]
293.15 K | 877.8
303.15 K | 867.99
313.15 K | 857.87
323.15 K | 847.4
333.15 K | 836.59
343.15 K | 825.42

CCc1ccccc1 [ethylbenzene]
[1]
Conditions | mass density [kg/m3]
293.15 K | 867.82
303.15 K | 858.6
313.15 K | 851.85

Conditions | refractive index
[2] | 1.4962

CCc1ccccc1 [ethylbenzene] + O=[N+]([O-])c1ccccc1
[3], x1 = 1
Conditions | mass density [kg/m3]
293.15 K | 867.82
303.15 K | 858.6
313.15 K | 851.85
323.15 K | 847.58
333.15 K | 845.79
343.15 K | 846.48

O=[N+]([O-])c1ccccc1 [nitrobenzene]
[1]
Conditions | mass density [kg/m3]
293.15 K | 1202.95
303.15 K | 1193.56
313.15 K | 1183.37
323.15 K | 1172.38
333.15 K | 1160.59
343.15 K | 1148
353.15 K | 1134.61

Conditions | refractive index
[2] | 1.55488

O=[N+]([O-])c1ccccc1 [nitrobenzene] + C=Cc1ccccc1
[3], x2 = 0
Conditions | mass density [kg/m3]
293.15 K | 1202.95
303.15 K | 1193.56
313.15 K | 1183.37
323.15 K | 1172.38
333.15 K | 1160.59
343.15 K | 1148
353.15 K | 1134.61

C=Cc1ccccc1 [styrene]
[1]
Conditions | mass density [kg/m3]
293.15 K | 906
303.15 K | 896.44
313.15 K | 886.88
323.15 K | 877.32
333.15 K | 867.76
343.15 K | 858.2
353.15 K | 848.64

Conditions | refractive index
[2] | 1.546

Cc1ccccc1 [toluene]
[1]
Conditions | mass density [kg/m3]
293.15 K | 866.75
303.15 K | 857.53
313.15 K | 848.25
323.15 K | 838.9
333.15 K | 829.5
343.15 K | 820.03
353.15 K | 810.5

Conditions | refractive index
[2] | 1.4965

Cc1ccccc1 [toluene] + O=[N+]([O-])c1ccccc1
[3], x1 = 1
Conditions | mass density [kg/m3]
293.15 K | 866.75
303.15 K | 857.53
313.15 K | 848.25
323.15 K | 838.9
333.15 K | 829.5
343.15 K | 820.03
353.15 K | 810.5
